The experiment concerns MV-4-11 cells. Put plainly: Gene expression microarray analysis (Affymetrix PrimeView) and GSEA. Conditions: MV-4-11 cells, 48 hours. The format is cell-based, human. Set-up: RFU PODN (11730768_x_at) / Fold change /veh PODN (11730768_x_at) / RFU LINC00158 (11744669_a_at) / Fold change /veh LINC00158 (11744669_a_at) / RFU DUSP10 (11751237_a_at) / Fold change /veh DUSP10 (11751237_a_at) / RFU ID3 (11757404_x_at) / Fold change /veh ID3 (11757404_x_at) / RFU PLEKHG5 (11737974_s_at) / Fold change /veh PLEKHG5 (11737974_s_at) / RFU LRRC4B (11730491_at) / Fold change /veh LRRC4B (11730491_at) / RFU GIMAP4 (11747438_a_at) / Fold change /veh GIMAP4 (11747438_a_at) / RFU KRT8 (11758183_x_at) / Fold change /veh KRT8 (11758183_x_at) / RFU CNN1 (11734310_a_at) / Fold change /veh CNN1 (11734310_a_at) / RFU VPS37D (11726825_at) / Fold change /veh VPS37D (11726825_at) / RFU C10orf10 (11716522_x_at) / Fold change /veh C10orf10 (11716522_x_at) / RFU KIR2DL2 /// KIR2DL4 /// KIR2DL5A /// KIR2DL5B /// KIR2DS1 /// KIR2DS2 /// KIR2DS3 /// KIR2DS4 /// KIR3DL3 /// KIR3DL3 /// KIR3DS1 (11738374_at) / Fold change /veh KIR2DL2 /// KIR2DL4 /// KIR2DL5A /// KIR2DL5B /// KIR2DS1 /// KIR2DS2 /// KIR2DS3 /// KIR2DS4 /// KIR3DL3 /// KIR3DL3 /// KIR3DS1 (11738374_at) / RFU C1QL1 (11718748_at) / Fold change /veh C1QL1 (11718748_at) / RFU TMPRSS4 (11747572_a_at) / Fold change /veh TMPRSS4 (11747572_a_at) / RFU HAMP (11756126_x_at) / Fold change /veh HAMP (11756126_x_at) / RFU RNFT2 (11725882_a_at) / Fold change /veh RNFT2 (11725882_a_at) / RFU NR4A2 (11747474_a_at) / Fold change /veh NR4A2 (11747474_a_at) / RFU ABCC12 (11746883_a_at) / Fold change /veh ABCC12 (11746883_a_at) / RFU TMEM136 (11760407_x_at) / Fold change /veh TMEM136 (11760407_x_at) / RFU CLDN22 /// WWC2 (11732394_at) / Fold change /veh CLDN22 /// WWC2 (11732394_at) / RFU HLA-DPB1 (11760878_x_at) / Fold change /veh HLA-DPB1 (11760878_x_at) / RFU SPINT1 (11716480_a_at) / Fold change /veh SPINT1 (11716480_a_at) / RFU GAP43 (11754022_s_at) / Fold change /veh GAP43 (11754022_s_at) / RFU A4GNT (11735810_at) / Fold change /veh A4GNT (11735810_at) / RFU PRB3 (11715151_x_at) / Fold change /veh PRB3 (11715151_x_at) / RFU TUBB4B (11761932_at) / Fold change /veh TUBB4B (11761932_at) / RFU CAPN14 (11732068_a_at) / Fold change /veh CAPN14 (11732068_a_at) / RFU TMCC2 (11721928_a_at) / Fold change /veh TMCC2 (11721928_a_at) / RFU IRGQ (11745062_a_at) / Fold change /veh IRGQ (11745062_a_at) / RFU FAM174B (11720279_a_at) / Fold change /veh FAM174B (11720279_a_at) / RFU TMPRSS4 (11748680_a_at) / Fold change /veh TMPRSS4 (11748680_a_at) / RFU FAM212B (11763350_a_at) / Fold change /veh FAM212B (11763350_a_at) / RFU PLEKHG5 (11743358_a_at) / Fold change /veh PLEKHG5 (11743358_a_at) / RFU ZSCAN30 (11745921_a_at) / Fold change /veh ZSCAN30 (11745921_a_at) / RFU CMKLR1 (11741424_a_at) / Fold change /veh CMKLR1 (11741424_a_at) / RFU LOC101060620 /// MAPK8IP1 (11723275_at) / Fold change /veh LOC101060620 /// MAPK8IP1 (11723275_at) / RFU SPTSSB (11747773_x_at) / Fold change /veh SPTSSB (11747773_x_at) / RFU PRSS12 (11739890_at) / Fold change /veh PRSS12 (11739890_at) / RFU BIN1 (11741810_x_at) / Fold change /veh BIN1 (11741810_x_at) / RFU WNT11 (11732464_a_at) / Fold change /veh WNT11 (11732464_a_at) / RFU C10orf10 (11716521_a_at) / Fold change /veh C10orf10 (11716521_a_at) / RFU C5orf56 (11738089_at) / Fold change /veh C5orf56 (11738089_at) / RFU CYB561 (11721691_x_at) / Fold change /veh CYB561 (11721691_x_at) / RFU ANKRD19P (11752326_a_at) / Fold change /veh ANKRD19P (11752326_a_at) / RFU OR2T12 /// OR2T33 /// OR2T8 (11738714_s_at) / Fold change /veh OR2T12 /// OR2T33 /// OR2T8 (11738714_s_at) / RFU VCAN (11748164_a_at) / Fold change /veh VCAN (11748164_a_at) / RFU JSRP1 (11732532_at) / Fold change /veh JSRP1 (11732532_at) / RFU KRTAP10-11 (11738290_x_at) / Fold change /veh KRTAP10-11 (11738290_x_at) / RFU MYO3A (11730013_a_at) / Fold change /veh MYO3A (11730013_a_at) / RFU EBF3 (11725865_a_at) / Fold change /veh EBF3 (11725865_a_at) / RFU CAMK2N1 (11719241_x_at) / Fold change /veh CAMK2N1 (11719241_x_at) / RFU C5orf56 (11738088_a_at) / Fold change /veh C5orf56 (11738088_a_at) / RFU OLFML3 (11715873_a_at) / Fold change /veh OLFML3 (11715873_a_at) / RFU LOC100653217 /// NTM (11731650_a_at) / Fold change /veh LOC100653217 /// NTM (11731650_a_at) / RFU MAPK11 (11762145_a_at) / Fold change /veh MAPK11 (11762145_a_at) / RFU FIZ1 (11724087_x_at) / Fold change /veh FIZ1 (11724087_x_at) / RFU OASL (11726364_x_at) / Fold change /veh OASL (11726364_x_at) / RFU SOX15 (11748057_x_at) / Fold change /veh SOX15 (11748057_x_at) / RFU CD79A (11719716_a_at) / Fold change /veh CD79A (11719716_a_at) / RFU HIST1H1D (11736915_at) / Fold change /veh HIST1H1D (11736915_at) / RFU CASKIN2 (11723855_a_at) / Fold change /veh CASKIN2 (11723855_a_at) / RFU LOC730098 (11760151_x_at) / Fold change /veh LOC730098 (11760151_x_at) / RFU OR4N2 (11742367_at) / Fold change /veh OR4N2 (11742367_at) / RFU PRRT2 (11749266_a_at) / Fold change /veh PRRT2 (11749266_a_at) / RFU SNX32 (11753110_a_at) / Fold change /veh SNX32 (11753110_a_at) / RFU CDHR5 (11726645_a_at) / Fold change /veh CDHR5 (11726645_a_at) / RFU RCAN1 (11760418_a_at) / Fold change /veh RCAN1 (11760418_a_at) / RFU FAM167A (11723789_a_at) / Fold change /veh FAM167A (11723789_a_at) / RFU FAM26E (11764081_at) / Fold change /veh FAM26E (11764081_at) / RFU ISYNA1 (11749810_s_at) / Fold change /veh ISYNA1 (11749810_s_at) / RFU ACY1 (11761880_at) / Fold change /veh ACY1 (11761880_at) / RFU 11764098_at / Fold change /veh 11764098_at / RFU SAMD14 (11745864_x_at) / Fold change /veh SAMD14 (11745864_x_at) / RFU NPB (11741838_a_at) / Fold change /veh NPB (11741838_a_at) / RFU TMPRSS6 (11731388_a_at) / Fold change /veh TMPRSS6 (11731388_a_at) / RFU KRTAP10-2 (11738614_at) / Fold change /veh KRTAP10-2 (11738614_at) / RFU ARHGAP8 /// PRR5-ARHGAP8 (11727945_x_at) / Fold change /veh ARHGAP8 /// PRR5-ARHGAP8 (11727945_x_at) / RFU KRTAP5-7 /// NADSYN1 (11734609_at) / Fold change /veh KRTAP5-7 /// NADSYN1 (11734609_at) / RFU RASL12 (11751679_a_at) / Fold change /veh RASL12 (11751679_a_at) / RFU CDKN2B (11736163_a_at) / Fold change /veh CDKN2B (11736163_a_at) / RFU PRF1 (11729649_at) / Fold change /veh PRF1 (11729649_at) / RFU, ZNF638 /// ZNF638-IT1 / Fold change vs veh, ZNF638 /// ZNF638-IT1 / RFU, PANK3 / Fold change vs veh, PANK3 / RFU, SH3YL1 / Fold change vs veh, SH3YL1 / RFU, ZEB2 / Fold change vs veh, ZEB2 / RFU, NRIP1 / Fold change vs veh, NRIP1 / RFU, PTTG1IP / Fold change vs veh, PTTG1IP / RFU, CAPN2 / Fold change vs veh, CAPN2 / RFU, MED14 / Fold change vs veh, MED14 / RFU, SNORA58 / Fold change vs veh, SNORA58 / RFU, C1orf63 / Fold change vs veh, C1orf63 / RFU, LRRFIP1 / Fold change vs veh, LRRFIP1 / RFU, NDUFAF7 / Fold change vs veh, NDUFAF7 / RFU, SLC12A2 / Fold change vs veh, SLC12A2 / RFU, IBTK / Fold change vs veh, IBTK / RFU, ESF1 / Fold change vs veh, ESF1 / Fold change vs veh, TMEM50B / RFU, TAOK1 / Fold change vs veh, TAOK1 / RFU, ACBD3 / Fold change vs veh, ACBD3 / RFU, TMA16 / Fold change vs veh, TMA16 / RFU, RWDD3 / Fold change vs veh, RWDD3 / RFU, BCAT1 / Fold change vs veh, BCAT1 / RFU, EDEM3 / Fold change vs veh, EDEM3 / RFU, TMEM33 / Fold change vs veh, TMEM33 / RFU, WDR75 / Fold change vs veh, WDR75 / RFU, AHCTF1 / Fold change vs veh, AHCTF1 / RFU, TFRC / Fold change vs veh, TFRC / RFU, ZDHHC17 / Fold change vs veh, ZDHHC17 / RFU, NOM1 / Fold change vs veh, NOM1 / RFU, ARL8B / Fold change vs veh, ARL8B / RFU, ZBTB11 / Fold change vs veh, ZBTB11 / RFU, TAMM41 / Fold change vs veh, TAMM41 / RFU, KIAA1704 /// LOC100996395 / Fold change vs veh, KIAA1704 /// LOC100996395 / RFU, ING1 / Fold change vs veh, ING1 / RFU, TRMT61B / Fold change vs veh, TRMT61B / RFU, FUBP3 / Fold change vs veh, FUBP3 / RFU, TP53 / Fold change vs veh, TP53 / RFU, TNKS2 / Fold change vs veh, TNKS2 / RFU, ZFP14 / Fold change vs veh, ZFP14 / RFU, ACTR2 / Fold change vs veh, ACTR2 / RFU, PPP3R1 / Fold change vs veh, PPP3R1 / RFU, PIK3R1 / Fold change vs veh, PIK3R1 / RFU, HNRNPA1 / Fold change vs veh, HNRNPA1 / RFU, RNF170 / Fold change vs veh, RNF170 / RFU, ZNF28 / Fold change vs veh, ZNF28 / RFU, RNGTT / Fold change vs veh, RNGTT / RFU, OGT / Fold change vs veh, OGT / RFU, BRD1 / Fold change vs veh, BRD1 / RFU, MARS / Fold change vs veh, MARS / RFU, ZNF655 / Fold change vs veh, ZNF655 / RFU, FAHD1 / Fold change vs veh, FAHD1 / RFU, BDP1 / Fold change vs veh, BDP1 / RFU, LRRCC1 / Fold change vs veh, LRRCC1 / RFU, ARID1A / Fold change vs veh, ARID1A / RFU, ZNF146 / Fold change vs veh, ZNF146 / RFU, ZNF330 / Fold change vs veh, ZNF330 / RFU, GPN3 / Fold change vs veh, GPN3 / RFU, C9orf123 / Fold change vs veh, C9orf123 / RFU, N4BP2L2 / Fold change vs veh, N4BP2L2 / RFU, ARFIP1 / Fold change vs veh, ARFIP1 / RFU, FAM179B / Fold change vs veh, FAM179B / RFU, BCL10 / Fold change vs veh, BCL10 / RFU, UHRF1BP1L / Fold change vs veh, UHRF1BP1L / RFU, BET1 / Fold change vs veh, BET1 / RFU, CNOT2 / Fold change vs veh, CNOT2 / RFU, ZNF268 / Fold change vs veh, ZNF268 / Fold change vs veh, ZNF507 / RFU, DGCR2 / Fold change vs veh, DGCR2 / RFU, WDSUB1 / Fold change vs veh, WDSUB1 / Fold change vs veh, HSP90B1 /// MIR3652 / RFU, ADSS / Fold change vs veh, ADSS / RFU, GK / Fold change vs veh, GK / RFU, ZNF148 / Fold change vs veh, ZNF148 / RFU, TAF9 / Fold change vs veh, TAF9 / RFU, SLC1A5 / Fold change vs veh, SLC1A5 / RFU, SLMO2 / Fold change vs veh, SLMO2 / RFU, ABCC4 / Fold change vs veh, ABCC4 / RFU, LOC101060439 /// RAP1B / Fold change vs veh, LOC101060439 /// RAP1B / RFU, RFX7 / Fold change vs veh, RFX7 / RFU, GTPBP10 / Fold change vs veh, GTPBP10 / RFU, CNEP1R1 / Fold change vs veh, CNEP1R1 / RFU, BIVM-ERCC5 /// ERCC5 / Fold change vs veh, BIVM-ERCC5 /// ERCC5 / RFU, ILF3 / Fold change vs veh, ILF3 / RFU 11762660_at / Fold change /veh 11762660_at / RFU VCAN (11757783_s_at) / Fold change /veh VCAN (11757783_s_at) / RFU DDX43 (11728927_at) / Fold change /veh DDX43 (11728927_at) / RFU KRT8 (11758188_x_at) / Fold change /veh KRT8 (11758188_x_at) / RFU NKD1 (11759106_at) / Fold change /veh NKD1 (11759106_at) / RFU SRD5A1 (11742802_a_at) / Fold change /veh SRD5A1 (11742802_a_at) / RFU TPSAB1 /// TPSB2 (11721975_s_at) / Fold change /veh TPSAB1 /// TPSB2 (11721975_s_at) / RFU GSTM3 (11746129_a_at) / Fold change /veh GSTM3 (11746129_a_at) / RFU IL23R (11737362_x_at) / Fold change /veh IL23R (11737362_x_at) / RFU TMEM51 (11727254_a_at) / Fold change /veh TMEM51 (11727254_a_at) / RFU PIWIL2 (11732686_x_at) / Fold change /veh PIWIL2 (11732686_x_at) / RFU ORM1 (11744905_x_at) / Fold change /veh ORM1 (11744905_x_at) / RFU CCDC152 (11743942_at) / Fold change /veh CCDC152 (11743942_at) / RFU ECM1 (11717891_a_at) / Fold change /veh ECM1 (11717891_a_at) / RFU IL23R (11748794_a_at) / Fold change /veh IL23R (11748794_a_at) / RFU TNFAIP8L3 (11732012_x_at) / Fold change /veh TNFAIP8L3 (11732012_x_at) / RFU MBOAT4 (11741988_at) / Fold change /veh MBOAT4 (11741988_at) / RFU 11764193_at / Fold change /veh 11764193_at / RFU TMEM53 (11763286_at) / Fold change /veh TMEM53 (11763286_at) / RFU MAGEB2 (11727129_at) / Fold change /veh MAGEB2 (11727129_at) / RFU TMEM200A (11744735_a_at) / Fold change /veh TMEM200A (11744735_a_at) / RFU CCDC152 (11751479_a_at) / Fold change /veh CCDC152 (11751479_a_at) / RFU FAM211A (11726209_a_at) / Fold change /veh FAM211A (11726209_a_at) / RFU RGS16 (11746705_a_at) / Fold change /veh RGS16 (11746705_a_at) / RFU VCAN (11755009_s_at) / Fold change /veh VCAN (11755009_s_at) / RFU RHOB (11743442_s_at) / Fold change /veh RHOB (11743442_s_at) / RFU RGS16 (11720943_a_at) / Fold change /veh RGS16 (11720943_a_at) / RFU RGS16 (11720944_at) / Fold change /veh RGS16 (11720944_at) / RFU, VPS4B / Fold change vs veh, VPS4B / RFU, CREB1 / Fold change vs veh, CREB1 / RFU, DNAJC13 / Fold change vs veh, DNAJC13 / RFU, GNAQ / Fold change vs veh, GNAQ / RFU, CDK5R1 / Fold change vs veh, CDK5R1 / RFU, ZRANB3 / Fold change vs veh, ZRANB3 / RFU, CUL4A / Fold change vs veh, CUL4A / RFU, CCNY / Fold change vs veh, CCNY / RFU, UFL1 / Fold change vs veh, UFL1 / RFU, COG3 / Fold change vs veh, COG3 / RFU, DIAPH2 / Fold change vs veh, DIAPH2 / RFU, SKA2 / Fold change vs veh, SKA2 / RFU, AFF3 / Fold change vs veh, AFF3 / RFU, LMF1 / Fold change vs veh, LMF1 / RFU, IPO11 / Fold change vs veh, IPO11 / RFU, DFFB / Fold change vs veh, DFFB / RFU, FOXP1 / Fold change vs veh, FOXP1 / RFU, CARD8 / Fold change vs veh, CARD8 / RFU, STRN3 / Fold change vs veh, STRN3 / RFU, ADK / Fold change vs veh, ADK / RFU, RASSF2 / Fold change vs veh, RASSF2 / RFU, WIPF1 / Fold change vs veh, WIPF1 / RFU, LARP1B / Fold change vs veh, LARP1B / RFU, RASA1 / Fold change vs veh, RASA1 / RFU, RB1 / Fold change vs veh, RB1 / RFU, PPFIA1 / Fold change vs veh, PPFIA1 / RFU, MAT2A / Fold change vs veh, MAT2A / RFU, CCT5 / Fold change vs veh, CCT5 / RFU, WDR92 / Fold change vs veh, WDR92 / RFU, CUX1 / Fold change vs veh, CUX1 / RFU, TTC7A / Fold change vs veh, TTC7A / RFU, TMEM135 / Fold change vs veh, TMEM135 / RFU, DEPTOR / Fold change vs veh, DEPTOR / RFU, CPM / Fold change vs veh, CPM / RFU, DNAJB6 / Fold change vs veh, DNAJB6 / RFU, CACNA2D3 / Fold change vs veh, CACNA2D3 / RFU, DTX4 / Fold change vs veh, DTX4 / RFU, TFCP2 / Fold change vs veh, TFCP2 / RFU, GMCL1 /// GMCL1P1 / Fold change vs veh, GMCL1 /// GMCL1P1 / RFU, AEBP2 / Fold change vs veh, AEBP2 / RFU, SNHG1 /// SNORD22 /// SNORD25 /// SNORD26 /// SNORD27 /// SNORD28 /// SNORD29 /// SNORD31 / Fold change vs veh, SNHG1 /// SNORD22 /// SNORD25 /// SNORD26 /// SNORD27 /// SNORD28 /// SNORD29 /// SNORD31 / Fold change (Aza/veh), C12orf56 (ProbeSet 11735607_a_at) / Fold change (ACY-1035/veh), C12orf56 (ProbeSet 11735607_a_at) / Fold change (Aza/veh), FGFR1OP (ProbeSet 11751329_s_at) / Fold change (ACY-1035/veh), FGFR1OP (ProbeSet 11751329_s_at) / Fold change (Aza/veh), VPS36 (ProbeSet 11739960_a_at) / Fold change (ACY-1035/veh), VPS36 (ProbeSet 11739960_a_at) / RFU SYPL1 (11715823_x_at) / Fold change /veh SYPL1 (11715823_x_at) / RFU IGFBP7 (11715501_s_at) / Fold change /veh IGFBP7 (11715501_s_at) / RFU REEP3 (11722064_at) / Fold change /veh REEP3 (11722064_at) / RFU IGLL1 (11728026_x_at) / Fold change /veh IGLL1 (11728026_x_at): dose or concentration left out as unconfirmed.

These results are taken from paper PMC5218480 (PLoS ONE, 2017).

SMILES strings stand for the structures.

Consider `Nc1ccc(-c2cccs2)cc1NC(=O)c1ccc2c(c1)cc(C1CC1)n2CCN1CCOCC1` [ACY-1035], for which the “Fold change /veh CAPN14 (11732068_a_at)” value is reported as 1.08.
